Test results taken from PMC10072326, “Promising anticancer agents based on 8-hydroxyquinoline hydrazone copper(II) complexes” (Frontiers in Chemistry, 2023).

How the values were obtained:
A-549 cells [1] = assay: ROS activation via dihydroethidium staining, flow cytometry; assay type: cell-based
From the text: Since reactive oxygen species appeared to be involved in the nicking activity of the complexes (Supplementary Figure S24), we investigated whether there was an increase in ROS formation in cells upon drug treatment. Dihydroethidium (DHE) is a reduced form of ethidium, after oxidation with superoxide (ROS), it is converted into 2-hydroxy ethidium, which is a chemical that emits red fluorescence and intercalates DNA. […] Similar results were obtained using A-549 cells, but with much milder induction of ROS except for 8, which remained high (Supplementary Figure S26).
(§1) 5 × 10^4 number of A-375 and A-549 cells were seeded on 12-well plates, and the next day cells were treated with either copper complexes (calculated IC70 values) or cisplatin (15 μM). Following 48 h of treatment, cells were trypsinized, centrifuged and resuspended in PBS solution supplemented with 1% fetal bovine serum (FBS) (10^6 cells/mL).
Oxidative stress levels were assessed by Muse Oxidative Stress Kit (Luminex, MCH100111) using the same protocol as previously described (21).

A-375 cells [2] = assay: Apoptosis by Annexin V/7-AAD and Caspase 3/7 flow cytometry; assay type: cell-based; details: 48 h, Annexin-V and caspase 3/7
Protocol: To determine the mode of cell death, A-375 cells were incubated with the Cu complexes and cisplatin for 48 h and, induction of apoptosis was evaluated using both Annexin-V staining and activation of caspase 3/7 in response to drug treatment. While Annexin-V staining relies on the loss of plasma membrane asymmetry, caspases 3 and 7 are critical proteases, which are responsible for the cleavage of many cellular proteins. […] Similar results were obtained in A-549 cells (Supplementary Figure S28).
as §1
Annexin V & Dead Cell Kit (Luminex, MCH100105) protocols were followed for Annexin V activation. Briefly, 1 × 10^5 cells were stained with Annexin V and 7-AAD solution in a 1:1 ratio and incubated at room temperature for 20 min. The apoptotic cell population was evaluated with Muse Cell Analyzer (Merck Millipore).
Caspase-3/7 Kit (Luminex, MCH100108) protocols were followed for Caspase 3/7 staining. 2 × 10^5 cells were stained with 5 μL of Caspase 3/7 antibody (1:8 dilution in PBS) and incubated at room temperature for 30 min. Then, the cells were stained with 100 μL of 7-AAD antibody mixture (1:75 dilution with 1 × Assay Buffer) for 5 min. Caspase 3/7 and 7-AAD positivity were assessed with Muse Cell Analyzer (Merck Millipore).

S. aureus MRSA 272123 = assay: MIC determination; assay type: cell-based, Staphylococcus aureus; details: 18 h
Protocol: (§2) Wild-type Escherichia coli K-12 AG100 strain [argE3 thi-1 rpsL xyl mtl Δ(gal-uvrB) supE44] expressing the AcrAB TolC efflux pump at its basal level and Klebsiella pneumoniae ATCC 49619 Gram-negative strains were studied in the experiments. Sensitive (ATCC 25928) and the methicillin-resistant (MRSA 272123) subspecies of Staphylococcus aureus were used as Gram-positive strains in the assays.
(§3) Minimum inhibitory concentration (MIC) values of selected compounds were determined in 96-well plates based on the Clinical and Laboratory Standard Institute guidelines (CLSI guidelines). The stock solutions of the compounds were dissolved in DMSO using 1.3 μL of Mueller Hinton Broth, and then two-fold serial dilutions were performed. The starting concentration of the compounds was 100 μM. Then 10^‒4 dilution of an overnight bacterial culture in 100 μL of medium was added to each well, except for the medium control wells.

S. aureus ATCC 25928 = assay: MIC determination; assay type: cell-based, Staphylococcus aureus; details: S. aureus ATCC 25928 (sensitive); 18 h
Protocol: as §2, §3

[3] = tested on: Klebsiella pneumoniae ATCC 49619; assay: MIC determination; assay type: cell-based; details: K. pneumoniae; 18 h
Protocol: as §2, §3

[4] = tested on: Escherichia coli K-12 AG100; assay: MIC determination; assay type: cell-based; details: E. coli; 18 h
Protocol: as §2, §3

A-549 cells [5] = assay: Sulforhodamine B (SRB) cell viability assay; assay type: cell-based; details: 72 h
Protocol: (§4) Copper compounds were tested, along with the free ligands and cisplatin as the positive control, for their cytotoxicity on both melanoma (A-375) and lung adenocarcinoma (A-549) cell lines in the concentration range 0.78–50 μM. Following 72 h of incubation, cell viability was measured via sulforhodamine B (SRB) assay (Supplementary Figure S25).
(§5) A-375 cells (ATCC, CRL-3222) were grown in Dulbecco’s Modified Eagle Medium with high glucose (Gibco #11965118) and A-549 (ATCC, CCL-185) cells were grown in Dulbecco’s Modified Eagle Medium F-12 (Gibco #11320033), supplemented with 10% FBS (Gibco, #10500064) and Penicillin-Streptomycin (10,000 U/mL, Gibco, #15140122). Cells were incubated at 37 °C, 5% CO2 incubator and subcultured every 3 days.
(§6) All the tested complexes were dissolved in DMSO (10 mM stock solution), and aliquots were stored at -20 °C, thawed on the experiment day and used only once. For SRB cell viability assay, A-375 and A-549 cells were seeded on 96-well plates (4×10^3 cells/well) and treated with serial dilutions of indicated compounds (with a concentration range of 0-50 μM, 72 h). Trichloroacetic acid (TCA) was added to wells for fixation at a final concentration of 10%, for 1 h at 4 °C. Each well was washed five times with ddH2O, dried, and incubated with 0.4% (w/v) SRB dye (50 µL/well) for 30 min at room temperature. The wells were washed with 1% acetic acid (v/v) five times, and 150 µL of 10 mM Tris solution was added to dissolve the stain. Colorimetric measurements were taken at λ = 564 nm. Viability percentage was calculated as follows: % Cell Viability = [100 × (sample Abs.-blank) / (non-treated control Abs.-blank)].

A-375 cells [6] = assay: Sulforhodamine B (SRB) cell viability assay; assay type: cell-based; details: 72 h
Protocol: as §4, §5, §6

[7] = Thermodynamic solubility at pH 7.4; assay type: physicochemical; details: Cu(II) complexes; pH 7.40; 20 mM HEPES; 25.0°C
Protocol: Thermodynamic solubility (S) was measured for the new ligands, L^7 and L^8, since data for the rest of the series was previously reported (9), and for selected Cu(II) complexes: 1, 5 and 6. Solubility was measured for the saturated solutions in water at pH 7.40 in 20 mM HEPES at 25.0 ± 0.1 °C. The concentration was determined by UV-Vis spectrophotometry using the stock solutions of the compounds with known concentrations dissolved in 100% DMSO, 50% and 25% (v/v) DMSO/buffered aqueous solutions for the calibration.

A-375 cells [8] = assay: γH2AX staining for DNA double-strand breaks; assay type: cell-based
Protocol: Indeed, we examined whether DNA nicks induced by the complexes on pure plasmid DNA would reflect in cell culture as increased DNA break formation. To test this, A-375 cells were stained using γH2AX, which is a common marker for DSBs (Figure 7B). […] For complex 1 the opposite effect was observed and despite its lower ability to induce ROS formation, the DSB were the highest among the group.
as §1
The Muse ɣH2A.X Activation Dual Detection Kit (Luminex, MCH200101) protocols were followed with minor changes. 1 × 10^5 cells were mixed with ice-cold 1X Fixation Buffer at the same volume for 5 min. Cells were centrifuged (600 g, 5 min), and the pellet was suspended with 100 μL of ice-cold 1X Permeabilization Buffer (10 min, on ice), and centrifuged again. The cell pellet was resuspended with 50 μL of antibody mixture of (20X) Anti-phospho-Histone H2A.X (Ser139), Alexa Fluor 555 and (20X) Anti-H2A.X, PECy5 antibodies. Following 30 min of antibody staining, cells were centrifuged and resuspended with 1X Assay Buffer. DNA breaks were analysed with Muse Cell Analyzer (Merck Millipore).

A-549 cells [9] = assay: Cytotoxicity with ROS scavenger NAC (SRB); assay type: cell-based; details: 10 mM NAC pre-treatment 2 h, co-treatment 72 h
From the text: (§7) Additionally, to assess whether the ROS induction contributed to the cytotoxicity triggered by these complexes, we used a ROS scavenger, N-acetyl-cysteine (NAC), in combination with 1, 3, 5 or 8. […] Indeed, it is also possible that the cytotoxicity induced by 5 is not by ROS, despite the induction observed in Figure 7A.
(§8) Figure S27- Protective mechanism of NAC against Cu(II) complexes. Addition of NAC can protect cells from the cytotoxic effects of the Cu(II) complexes A-375 (A) and A-549 (B) cells were pre-treated with 10 mM of ROS scavenger N-acetylcysteine (NAC) for 2 h, then co-treated with freshly prepared Cu(II) complexes (1, 3, 5 and 8) for 72 h. Cell viability was measured via SRB assay (2 biological replicates, each done in duplicate). The error bars represent standard error of the mean. Student t-test was used for statistical analysis, *p<0.05, **p<0.01

A-375 cells [10] = assay: Cytotoxicity with ROS scavenger NAC (SRB); assay type: cell-based; details: 10 mM NAC pre-treatment 2 h, co-treatment 72 h
From the text: as §7, §8

In the case of `[Cu+2].[O-]C(=NN=Cc1ccc2cccc([O-])c2n1)c1ccncc1` [Complex 8, [Cu(L^8)]3], the “ROS induction, in words” value (A-549 cells [1]) is reported as “remained high”, the “induction of apoptosis, in words” value (A-375 cells [2]) is reported as “most effective drug among the complexes tested” and the MIC (S. aureus MRSA 272123) is reported as > 100 µM. For the same molecule, the MIC (S. aureus ATCC 25928) was > 100 µM, the MIC [3] was > 100 µM and the MIC [4] was > 100 µM. The IC50 (A-549 cells [5]) was 5.1 ± 0.2 µM, the IC50 (A-375 cells [6]) was 2.8 ± 0.4 µM and the “thermodynamic solubility S 7.4” value [7] was 3.3 ± 0.3 µM. The “DSB induction (γH2AX), in words” value (A-375 cells [8]) was “highest levels of DSB induction”, the “effect of NAC on cytotoxicity” value (A-549 cells [9]) was “significantly reduced” and the “effect of NAC on cytotoxicity” value (A-375 cells [10]) was “significantly reduced”.
